These results are taken from patent US20100323033A1, “CANCER SENSITIZER COMPRISING CHLOROGENIC ACID” (priority 2007, published 2010).

The subject of the data set is Human pancreatic carcinoma cell line AsPC-1 (doxorubicin resistant). The data set is described as follows: XTT assay of anticancer agent sensitivity in doxorubicin-resistant AsPC-1 cells. The settings on record: 48 hrs, FIG. 1. In kind it is cell-based. On the procedure:
Human pancreatic carcinoma cell line AsPC-1 (doxorubicin resistant) was purchased from ATCC (American Type Culture Collection, Manassas, Va., USA). AsPC-1 cell lines were maintained in media supplemented with 10% fetal bovine serum (Gibco BRL) at 37° C. in a humid 5% CO2 atmosphere, and subcultured every two or three days. XTT assay was conducted to examine whether chlorogenic acid increases the anticancer agent sensitivity. A modified MTT assay, XTT assay is a colorimetric method that determines the relative number of living cells, after treating cells with a compound degraded by a specific enzyme. AsPC-1 cells were seeded in 96-well plates (2×10^4 per well), and cultured for 24 hrs. The cells were treated with 0, 5, and 10 μM of doxorubicin, and 0, 5, 10, and […] of chlorogenic acid, and incubated for 48 hrs. 0.1 ml of active solution and 5 ml of XTT (2,3-Bis{2-methoxy-4-nitro-5[(sulfenylamino) carbonyl]-2H-tetrazolium-hydroxide}) were added to the 96-well plates, and 50 μl of reaction solution was added to each well, followed by incubation for 2 hrs. The plates were gently shaken for staining, and the absorbance was measured at 450 nm using a VERSAmax220 Automatic Microplate Reader (Molecular Devices Corp.).
(In general: Formazan colour is commonly taken as a measure of viable cells.)

Turning to `O=C(/C=C/c1ccc(O)c(O)c1)O[C@@H]1C[C@](O)(C(=O)O)C[C@@H](O)[C@H]1O` [chlorogenic acid, 3-[[3-(3,4-dihydroxyphenyl)-1-oxo-2-propenyl]oxy]-1,4,5-trihydroxycyclohexanecarboxylic acid], the “dependence of cancer cell viability on chlorogenic acid concentration” value (combination with doxorubicin) was “decreased, as the concentration of chlorogenic acid was increased”. Besides, for the setting “doxorubicin 0, 5, 10 μM with chlorogenic acid 0, 5, 10, 20μ, absorbance 450 nm”, the “decrease of viability of cancer cells with chlorogenic acid plus anticancer agent, compared to anticancer agent alone” value is 30%.
